From PubChem BioAssay AID624344 (Sanford-Burnham Center for Chemical Genomics, 2012)
pIC50: −log10 of the molar value. The source made the active and inactive calls. How the calls were made is not given here.

Assays:
[1] = system: Cytotoxicity; experiment: NFkB reporter suppression in cystic fibrosis bronchial cells – cell-based, uHTS hits, panel, cytotoxicity readout, dose response (AID 624344); conditions: CF bronchial epithelial cells, mean of runs
[2] = as above; conditions: CF bronchial epithelial cells, PAF-induced NFkB reporter inhibition; with PAF, mean of runs

Structure (SMILES) | pIC50 [1] | pIC50 [2] | IC50 [2] | IC50 [1]
COc1ccc(C2=Nn3c(nnc3-c3ccncc3)SC2)cc1 | 4.40 | 5.57 |  | 
COc1ccccc1Cn1c(=O)c2ccccc2n2c(Sc3ncnc4sccc34)nnc12 | 5.23 | 5.41 |  | 
COc1ccc(-c2cc(-c3nc4ccccn4c3NCc3ccccc3)ccc2OC)cc1 | 5.26 | 5.36 |  | 
Brc1ccc2ncnc(NCc3ccccc3)c2c1 | 5.21 | 6.30 |  | 
Cc1cc(N2C(=O)C(O)=C(C(=O)c3ccc(C)o3)C2c2cccc(Oc3ccccc3)c2)no1 (stereo not given) | 4.38 | 4.97 |  | 
CC1(Cc2ccc(Cl)cc2)C(=O)Nc2ccc(-c3cccnc3)cc21 (stereo not given) | 4.58 | 5.89 |  | 
C=C1C(=O)O[C@@]23[C@H]1CC[C@@H](C)[C@@H]2CC[C@@]1(C)O[C@@H]31 | 4.35 | 5.42 |  | 
O=C(NCCc1ccc(F)cc1)c1coc(=O)c(Br)c1 | 4.67 | 5.36 |  | 
FC(F)(F)c1nnc2c(Sc3ccc(Cl)cc3)nc3ccccc3n12 | 5.99 | 6.07 |  | 
CCOCC(=O)NC1CCc2cc(OC(=O)COCC)c(OC)c(OC)c2-c2ccc(SC)c(=O)cc21 (stereo not given) | 4.35 |  | inactive | 
Fc1ccc(Nc2ccnc(Nc3ccc(F)cc3)n2)cc1 | 4.85 | 5.10 |  | 
COc1cccc(CN(C)C(=O)C(CCSC)NS(=O)(=O)c2ccc3c(c2)OCCO3)c1OC (stereo not given) | 4.88 | 5.47 |  | 
COc1ccc(-n2nnnc2C(c2cccs2)N2CCC(n3c(=O)[nH]c4ccccc43)CC2)cc1 (stereo not given) | 4.85 | 5.30 |  | 
COc1ccc(S(=O)(=O)c2c(O)c3ccc(C(=O)Nc4ccccc4Cl)cc3[nH]c2=O)cc1 | 4.42 | 5.14 |  | 
COc1ccc(-n2c(C)cc3cc(OC(C)=O)ccc32)cc1 |  | 5.04 |  | > 79 µM (inactive)
COc1cc(C2c3cc4c(c(O)c3CC3COC(=O)C32)OCO4)cc(OC)c1OC (stereo not given) |  |  | inactive | > 79 µM (inactive)
FC(F)(F)c1nnc2c(Sc3ccccc3)nc3ccccc3n12 | 5.45 | 5.56 |  | 
C=CCn1c(Oc2ccccc2F)nc2c1c(=O)n(C)c(=O)n2C |  | 5.24 |  | > 79 µM (inactive)
CCCc1cc(-c2[nH]ncc2-c2ccc3c(c2)OCCCO3)c(O)cc1O | 4.59 | 5.06 |  | 
O=C(Nc1ccc(C(=O)N2CCOCC2)cc1)Nc1cccc(C(F)(F)F)c1 |  | 5.77 |  | > 79 µM (inactive)

Structure (SMILES) | pIC50 [1] | pIC50 [2] | IC50 [2] | IC50 [1]
COCCCN=C1NN=C(c2cc(C)n(Cc3ccccc3Cl)c2C)CS1 |  |  | inactive | > 79 µM (inactive)
O=c1cc(-c2ccccc2Cl)oc2cc(O)cc(O)c12 |  | 5.27 |  | 55.8 µM (inactive)
COc1ccc(CN(C(=O)CSc2nnc(-c3c[nH]c4ccccc34)o2)c2ccc(F)cc2)cc1OC | 5.13 | 5.40 |  | 
Cc1ccc2occ(/C=N/NC(=O)c3ccccc3Br)c(=O)c2c1 | 4.39 | 5.30 |  | 
O=C1OC(c2ccccc2)(c2cc(Br)ccc2O)c2ccccc21 (stereo not given) | 4.37 | 5.18 |  | 
O=C(Nc1cccc(-c2cnc3ccccc3n2)c1)c1cccc(NC(=O)c2ccco2)c1 | 5.17 | 5.43 |  | 
Cc1ccc(CCC(=O)Nc2ncc(Cc3cccc(Cl)c3Cl)s2)o1 | 4.72 | 5.05 |  | 
COc1ccc(-c2cnc(N)nc2-c2ccc(OC)cc2O)cc1 | 4.44 | 5.33 |  | 
Cc1cccc(C(=O)N2[C@@H](C(C)C)COc3cc(Br)ccc3S2(=O)=O)c1 | 4.42 | 4.95 |  | 
CC(=O)Nc1ccc(S(=O)(=O)N2c3ccccc3C(C)=CC2(C)C)cc1 | 4.35 |  | inactive | 
COc1ccc(-c2cc(NC=O)c3ncc(-c4cc(OC)c(OC)c(OC)c4)n3c2)cc1 | 4.54 |  | > 79 µM (inactive) | 
COc1cccc(N2CCN(c3c(C#N)c(C(F)(F)F)nn3C)CC2)c1 |  | 5.64 |  | 58.4 µM (inactive)
Cc1cccc(CNc2ncnc3ccc(-c4ccoc4)cc23)c1 | 5.22 | > 6.82 |  | 
COc1ccc2cc3c(N)nn(C(=O)c4ccccc4[N+](=O)[O-])c3nc2c1 | 4.40 | 6.27 |  | 
CC1CCc2sc3ncnc(N4CCOCC4)c3c2C1 (stereo not given) | 5.12 | 5.23 |  | 
Cc1c(O)ccc2c(-c3ccccc3)cc(=O)oc12 |  | 5.40 |  | 70.9 µM (inactive)
COC(=O)N1C(=O)[C@@](c2ccc(OC)cc2)(C(C)C)N1C(=O)OC | 4.31 | 5.33 |  | 
COC(=O)C1=C(C(=O)OC)[C@@H]2N(Cc3ccccc3)c3ccccc3[C@@]23C[C@@H](C(=O)OC)N(C(=O)c2ccc(Br)cc2)C3=N1 | 4.55 | 5.25 |  | 
CCN1CCN(Cc2ccc(NC(=O)c3ccc(C)c(NC(=O)C(=O)c4c[nH]c5ccccc45)c3)cc2C(F)(F)F)CC1 | 4.98 | 5.90 |  | 
O=C(Nc1ccccc1)Nc1ncc([N+](=O)[O-])s1 | 4.90 | 5.56 |  | 

Structure (SMILES) | pIC50 [1] | pIC50 [2] | IC50 [2] | IC50 [1]
COC(=O)c1c(C)n(-c2ccc(OC)cc2)c2ccc(O)cc12 | 4.37 | 5.63 |  | 
Oc1ccc(Br)cc1-c1nc2cnccn2c1NC1CCCC1 | 4.84 | 5.52 |  | 
COc1cc(NC(=O)Cn2ncc(Cl)c(Cl)c2=O)c(C)cc1[N+](=O)[O-] | 5.50 | 5.48 |  | 
CN1CCN(S(=O)(=O)c2ccc(Sc3nnnn3-c3ccccc3)c([N+](=O)[O-])c2)CC1 | 5.51 | 5.69 |  | 
CC1(Cc2ccc(F)cc2)C(=O)Nc2ccc(-c3cccnc3)cc21 (stereo not given) | 4.73 | 5.60 |  | 
CCOc1ccc(C(C(=O)NCC2CCCO2)N(Cc2cccs2)C(=O)c2snc(C(N)=O)c2N)cc1 (stereo not given) |  | 5.46 |  | > 79 µM (inactive)
COc1ccc(-c2cc(NC=O)c3ncc(-c4ccc(OC)c(OC)c4)n3c2)c(OC)c1 | 4.53 | 4.93 |  | 
COc1ccc2cc(C(N)=O)c(=Nc3ccc(C)cc3)oc2c1 | 4.88 | 5.59 |  | 
O=C(NCCCSc1ccccc1)c1cc(Cl)ccc1O | 5.10 | 5.30 |  | 
CS(=O)(=O)Nc1ccc(-c2cnc3cccnn23)cc1 |  | 5.60 |  | > 79 µM (inactive)
Cc1ccc(CSc2nccc(-c3c(C)nc4ccccn34)n2)cc1 | 4.58 | 5.50 |  | 
CN(C)CCCN(C(=O)CCSc1ccccc1)c1nc2cc3c(cc2s1)OCO3 | 4.58 | 5.02 |  | 
O=C(Nc1ccncc1)c1c(Cl)cccc1Cl | 4.41 | 5.30 |  | 
CN(c1ncnc(N)c1[N+](=O)[O-])C1CCCCC1 |  | 5.96 |  | > 79 µM (inactive)
CC(=O)Oc1ccc(N(C(C)=O)S(=O)(=O)c2cccs2)c2ccccc12 | 4.93 | 5.19 |  | 
CCn1c2ccccc2c2cc(/C=N/O)ccc21 | 4.33 | 5.47 |  | 
O=[N+]([O-])C1C(c2ccccc2)C12c1ccccc1-c1ccccc12 (stereo not given) |  |  | inactive | 64.1 µM (inactive)
Clc1ccc(Cn2ncc3c(N4CCN(c5ccccc5)CC4)ncnc32)cc1 | 5.29 | 5.33 |  | 
CCCN(CC)c1ncnc2[nH]ncc12 | 4.44 | 5.81 |  | 
CCOC(=O)Nc1ccc2c(c1)N(C(=O)CCN(CC)CC)c1ccccc1S2=O (stereo not given) | 4.46 | 5.23 |  | 
